# Data from ChEMBL document CHEMBL1828549, “Novel C-4'' modified azithromycin analogs with remarkably enhanced activity against erythromycin-resistant Streptococcus pneumoniae: the synthesis and antimicrobial evaluation” (2011).
# Assays:
# Type in all cases: functional
# Streptococcus pneumoniae [1] = test: Antibacterial activity against erythromycin-resistant Streptococcus pneumoniae A22072 expressing mef gene by the broth microdilution method
# Staphylococcus aureus [2] = test: Antibacterial activity against penicillin-resistant Staphylococcus aureus by the broth microdilution method
# Staphylococcus aureus [3] = test: Antibacterial activity against […] Staphylococcus aureus ATCC 29213 by the broth microdilution method
# Streptococcus pneumoniae [4] = test: Antibacterial activity against erythromycin-resistant Streptococcus pneumoniae B1 expressing erm gene by the broth microdilution method
# Streptococcus pneumoniae [5] = test: Antibacterial activity against erythromycin-resistant Streptococcus pneumoniae AB11 expressing erm and mef gene by the broth microdilution method
# Streptococcus pneumoniae [6] = test: Antibacterial activity against erythromycin-susceptible Streptococcus pneumoniae ATCC 49619 by the broth microdilution method
# Staphylococcus aureus [7] = test: Antibacterial activity against erythromycin-susceptible Staphylococcus aureus ATCC 25923 by the broth microdilution method
SMILES,MIC (Streptococcus pneumoniae [1]) [µg/mL],MIC (Staphylococcus aureus [2]) [µg/mL],MIC (Staphylococcus aureus [3]) [µg/mL],MIC (Streptococcus pneumoniae [4]) [µg/mL],MIC (Streptococcus pneumoniae [5]) [µg/mL],MIC (Streptococcus pneumoniae [6]) [µg/mL],MIC (Staphylococcus aureus [7]) [µg/mL]
CC[C@H]1OC(=O)[C@H](C)[C@@H](O[C@H]2C[C@@](C)(OC)[C@@H](OC(=O)NCCNC(=O)c3ccc(C)cc3)[C@H](C)O2)[C@H](C)[C@@H](O[C@@H]2O[C@H](C)C[C@H](N(C)C)[C@H]2O)[C@](C)(O)C[C@@H](C)CN(C)[C@H](C)[C@H]2OC(=O)O[C@@]21C,0.25,4,16,8,16,1,4
CC[C@H]1OC(=O)[C@H](C)[C@@H](O[C@H]2C[C@@](C)(OC)[C@@H](OC(=O)NCCNC(=O)c3ccc(F)cc3)[C@H](C)O2)[C@H](C)[C@@H](O[C@@H]2O[C@H](C)C[C@H](N(C)C)[C@H]2O)[C@](C)(O)C[C@@H](C)CN(C)[C@H](C)[C@H]2OC(=O)O[C@@]21C,1,2,16,4,32,1,16
CC[C@H]1OC(=O)[C@H](C)[C@@H](O[C@H]2C[C@@](C)(OC)[C@@H](OC(=O)NCCNC(=O)c3ccc(Cl)cc3)[C@H](C)O2)[C@H](C)[C@@H](O[C@@H]2O[C@H](C)C[C@H](N(C)C)[C@H]2O)[C@](C)(O)C[C@@H](C)CN(C)[C@H](C)[C@H]2OC(=O)O[C@@]21C,1,2,16,8,32,0.5,4
CC[C@H]1OC(=O)[C@H](C)[C@@H](O[C@H]2C[C@@](C)(OC)[C@@H](OC(=O)NCCNC(=O)c3ccc(Br)cc3)[C@H](C)O2)[C@H](C)[C@@H](O[C@@H]2O[C@H](C)C[C@H](N(C)C)[C@H]2O)[C@](C)(O)C[C@@H](C)CN(C)[C@H](C)[C@H]2OC(=O)O[C@@]21C,0.25,2,4,2,8,0.5,1
CC[C@H]1OC(=O)[C@H](C)[C@@H](O[C@H]2C[C@@](C)(OC)[C@@H](OC(=O)NCCNC(=O)c3ccc(Cl)cc3Cl)[C@H](C)O2)[C@H](C)[C@@H](O[C@@H]2O[C@H](C)C[C@H](N(C)C)[C@H]2O)[C@](C)(O)C[C@@H](C)CN(C)[C@H](C)[C@H]2OC(=O)O[C@@]21C,2,4,8,16,64,0.5,4
CC[C@H]1OC(=O)[C@H](C)[C@@H](O[C@H]2C[C@@](C)(OC)[C@@H](OC(=O)NCCNC(=O)c3ccc([N+](=O)[O-])cc3)[C@H](C)O2)[C@H](C)[C@@H](O[C@@H]2O[C@H](C)C[C@H](N(C)C)[C@H]2O)[C@](C)(O)C[C@@H](C)CN(C)[C@H](C)[C@H]2OC(=O)O[C@@]21C,0.5,1,16,4,64,0.5,4
CC[C@H]1OC(=O)[C@H](C)[C@@H](O[C@H]2C[C@@](C)(OC)[C@@H](OC(=O)NCCCCNC(=O)c3ccc(OC)cc3)[C@H](C)O2)[C@H](C)[C@@H](O[C@@H]2O[C@H](C)C[C@H](N(C)C)[C@H]2O)[C@](C)(O)C[C@@H](C)CN(C)[C@H](C)[C@H]2OC(=O)O[C@@]21C,0.25,1,32,4,16,1,4
CC[C@H]1OC(=O)[C@H](C)[C@@H](O[C@H]2C[C@@](C)(OC)[C@@H](OC(=O)NCCCCNC(=O)c3ccccc3OC)[C@H](C)O2)[C@H](C)[C@@H](O[C@@H]2O[C@H](C)C[C@H](N(C)C)[C@H]2O)[C@](C)(O)C[C@@H](C)CN(C)[C@H](C)[C@H]2OC(=O)O[C@@]21C,0.5,32,16,4,16,2,4
CC[C@H]1OC(=O)[C@H](C)[C@@H](O[C@H]2C[C@@](C)(OC)[C@@H](OC(=O)NCCCCNC(=O)c3ccc(OC)c(OC)c3)[C@H](C)O2)[C@H](C)[C@@H](O[C@@H]2O[C@H](C)C[C@H](N(C)C)[C@H]2O)[C@](C)(O)C[C@@H](C)CN(C)[C@H](C)[C@H]2OC(=O)O[C@@]21C,1,16,64,32,32,2,8
CC[C@H]1OC(=O)[C@H](C)[C@@H](O[C@H]2C[C@@](C)(OC)[C@@H](OC(=O)NCCCCNC(=O)c3ccc(C)cc3)[C@H](C)O2)[C@H](C)[C@@H](O[C@@H]2O[C@H](C)C[C@H](N(C)C)[C@H]2O)[C@](C)(O)C[C@@H](C)CN(C)[C@H](C)[C@H]2OC(=O)O[C@@]21C,1,64,32,8,16,0.5,4
CC[C@H]1OC(=O)[C@H](C)[C@@H](O[C@H]2C[C@@](C)(OC)[C@@H](OC(=O)NCCCCNC(=O)c3ccc(F)cc3)[C@H](C)O2)[C@H](C)[C@@H](O[C@@H]2O[C@H](C)C[C@H](N(C)C)[C@H]2O)[C@](C)(O)C[C@@H](C)CN(C)[C@H](C)[C@H]2OC(=O)O[C@@]21C,8,32,16,32,64,0.5,8
CC[C@H]1OC(=O)[C@H](C)[C@@H](O[C@H]2C[C@@](C)(OC)[C@@H](OC(=O)NCCCCNC(=O)c3ccc(Cl)cc3)[C@H](C)O2)[C@H](C)[C@@H](O[C@@H]2O[C@H](C)C[C@H](N(C)C)[C@H]2O)[C@](C)(O)C[C@@H](C)CN(C)[C@H](C)[C@H]2OC(=O)O[C@@]21C,1,64,8,8,16,0.5,4
CC[C@H]1OC(=O)[C@H](C)[C@@H](O[C@H]2C[C@@](C)(OC)[C@@H](OC(=O)NCCCCNC(=O)c3ccc(Br)cc3)[C@H](C)O2)[C@H](C)[C@@H](O[C@@H]2O[C@H](C)C[C@H](N(C)C)[C@H]2O)[C@](C)(O)C[C@@H](C)CN(C)[C@H](C)[C@H]2OC(=O)O[C@@]21C,1,32,32,8,16,1,8
CC[C@H]1OC(=O)[C@H](C)[C@@H](O[C@H]2C[C@@](C)(OC)[C@@H](OC(=O)NCCCCNC(=O)c3ccc(Cl)cc3Cl)[C@H](C)O2)[C@H](C)[C@@H](O[C@@H]2O[C@H](C)C[C@H](N(C)C)[C@H]2O)[C@](C)(O)C[C@@H](C)CN(C)[C@H](C)[C@H]2OC(=O)O[C@@]21C,1,64,16,4,16,1,2
CC[C@H]1OC(=O)[C@H](C)[C@@H](O[C@H]2C[C@@](C)(OC)[C@@H](OC(=O)NCCCCNC(=O)c3ccc([N+](=O)[O-])cc3)[C@H](C)O2)[C@H](C)[C@@H](O[C@@H]2O[C@H](C)C[C@H](N(C)C)[C@H]2O)[C@](C)(O)C[C@@H](C)CN(C)[C@H](C)[C@H]2OC(=O)O[C@@]21C,0.5,32,4,2,16,0.12,4
CC[C@H]1OC(=O)[C@H](C)[C@@H](O[C@H]2C[C@@](C)(OC)[C@@H](O)[C@H](C)O2)[C@H](C)[C@@H](O[C@@H]2O[C@H](C)C[C@H](N(C)C)[C@H]2O)[C@](C)(O)C[C@@H](C)CN(C)[C@H](C)[C@@H](O)[C@]1(C)O [AZITHROMYCIN],4,0.12,1,128,256,0.03,0.25
CC[C@H]1OC(=O)[C@H](C)[C@@H](O[C@H]2C[C@@](C)(OC)[C@@H](O)[C@H](C)O2)[C@H](C)[C@@H](O[C@@H]2O[C@H](C)C[C@H](N(C)C)[C@H]2O)[C@](C)(O)C[C@@H](C)C(=O)[C@H](C)[C@@H](O)[C@]1(C)O [ERYTHROMYCIN],8,0.25,0.12,128,256,0.03,0.06
